Common to all, as to assay type: physicochemical
Data set [1] is described as follows: dissolution rate compared with the free acid.
Data set [2] is described as follows: gravimetric vapor sorption (GVS) analysis. From the text: At relative humidity above 80% RH, tromethamine salt of bimatoprost acid behaves hygroscopic with a a significant moisture uptake observed. The significant uptake of moisture may be a result of the large specific surface area of the material. On desorption, the adsorbed water was rapidly lost with no equilibrium established. At the end of the gravimetric vapor sorption (GVS) cycle, at 40% RH, the overall sample mass increased by 5 wt %.

The nature of data set [3]: solubility of the tromethamine salt.
The nature of data set [4]: physical stability on storage.

Structures can show the parent of a compound that is named as a salt. Where two headings read alike, the source gives them in different places. Bounds are passed on as bounds.

`O=C(O)CCC/C=C/CC1C(O)CC(O)C1/C=C/C(O)CCc1ccccc1` (stereo not shown) [tromethamine salt of bimatoprost acid, tromethamine salt of 7-[3,5-Dihydroxy-2-(3-hydroxy-5-phenyl-pent-1-enyl)-cyclopentyl]-hept-5-enoic acid]: in data set [1], the dissolution rate entry was “faster dissolution rate than the free acid”. Moreover, in data set [2] (90% RH), the “GVS analysis: deliquescence” value is reported as “no deliquescence”. Also, the “GVS analysis: hydrate formation” value in data set [2] (90% RH) is “no hydrate”. The “overall sample mass increase at the end of the GVS cycle” value in data set [2] (end of GVS cycle, at 40% RH) was 5 wt %. For the same molecule, the “XRPD re-analysis post GVS analysis (change in crystalline form)” value in data set [2] (post GVS analysis) is listed as “no change in the crystalline Form 1”. Moreover, the “hygroscopic behaviour (moisture uptake)” value in data set [2] (relative humidity above 80% RH) is reported as “hygroscopic”. For the same molecule, the solubility is above 250 mg/mL in data set [3] (aqueous buffer, at pH 6.5, read-out: solubility) and around 25 w/v % in data set [3] (in formulation vehicles, no surfactant needed). In addition, the physical stability in data set [4] (25° C./60% RH in open container closure) and in data set [4] (40° C./75% RH in closed container closure) was above 3 months throughout.

(Values after patent publication US9447014B2, “Tromethamine salt of bimatoprost acid in crystalline form, methods for preparation, and methods for use thereof” (ALLERGAN, INC., priority 2012, dated 2016).)
